What all share (assay): biochemical
One assay deals with T1, SIK2 (Homo sapiens, UniProt Q9H0K1).
T1 construct: purchased ThermoFisher Scientific PV4792
The settings on record: 33P radioactive SIK kinase assay, AMARA peptide, 10 μM ATP. As for the experimental part:
(§1) The principle of the ^33P radioactive kinase assay consists in measuring the incorporated ^33P into the substrate AMARA peptide when phosphorylated by SIK1, SIK2 or SIK3 using [^33P]-g-ATP, which correlates with kinase activity.
(§2) 1% DMSO and 10 μM staurosporine final concentrations are used as negative and positive controls.
(§3) 11 μL of enzyme-substrate mixture is added on the assay plates. The reactions are started by adding 9 μL ATP mixture, consisting of non-labeled and ^33P-labeled ATP, on the assay plates.
(§4) The reactions are stopped by adding 25 μL phosphoric acid (150 mM) to the reactions.
(§5) After harvesting the kinase reactions, the filter plates are washed 6 times with phosphoric acid (75 mM). […] The top of the plates are sealed with TopSeal-A. Read-out is performed with a TopCount instrument (PerkinElmer Inc.).

The next assay has as its target T2, SIK1 (Homo sapiens, UniProt P57059).
T2 construct: purchased Carna Biosciences 02-131
The settings on record: 33P radioactive SIK kinase assay, AMARA peptide, 10 μM ATP; read-out: SIK1 IC50. How it is done:
as §1, §2, §3, §4, §5

In the next assay the target is T3, SIK3 (Homo sapiens, UniProt Q9Y2K2).
T3 construct: purchased SignalChem S12-11G-100
T3 sequence (Q9Y2K2 whole entry): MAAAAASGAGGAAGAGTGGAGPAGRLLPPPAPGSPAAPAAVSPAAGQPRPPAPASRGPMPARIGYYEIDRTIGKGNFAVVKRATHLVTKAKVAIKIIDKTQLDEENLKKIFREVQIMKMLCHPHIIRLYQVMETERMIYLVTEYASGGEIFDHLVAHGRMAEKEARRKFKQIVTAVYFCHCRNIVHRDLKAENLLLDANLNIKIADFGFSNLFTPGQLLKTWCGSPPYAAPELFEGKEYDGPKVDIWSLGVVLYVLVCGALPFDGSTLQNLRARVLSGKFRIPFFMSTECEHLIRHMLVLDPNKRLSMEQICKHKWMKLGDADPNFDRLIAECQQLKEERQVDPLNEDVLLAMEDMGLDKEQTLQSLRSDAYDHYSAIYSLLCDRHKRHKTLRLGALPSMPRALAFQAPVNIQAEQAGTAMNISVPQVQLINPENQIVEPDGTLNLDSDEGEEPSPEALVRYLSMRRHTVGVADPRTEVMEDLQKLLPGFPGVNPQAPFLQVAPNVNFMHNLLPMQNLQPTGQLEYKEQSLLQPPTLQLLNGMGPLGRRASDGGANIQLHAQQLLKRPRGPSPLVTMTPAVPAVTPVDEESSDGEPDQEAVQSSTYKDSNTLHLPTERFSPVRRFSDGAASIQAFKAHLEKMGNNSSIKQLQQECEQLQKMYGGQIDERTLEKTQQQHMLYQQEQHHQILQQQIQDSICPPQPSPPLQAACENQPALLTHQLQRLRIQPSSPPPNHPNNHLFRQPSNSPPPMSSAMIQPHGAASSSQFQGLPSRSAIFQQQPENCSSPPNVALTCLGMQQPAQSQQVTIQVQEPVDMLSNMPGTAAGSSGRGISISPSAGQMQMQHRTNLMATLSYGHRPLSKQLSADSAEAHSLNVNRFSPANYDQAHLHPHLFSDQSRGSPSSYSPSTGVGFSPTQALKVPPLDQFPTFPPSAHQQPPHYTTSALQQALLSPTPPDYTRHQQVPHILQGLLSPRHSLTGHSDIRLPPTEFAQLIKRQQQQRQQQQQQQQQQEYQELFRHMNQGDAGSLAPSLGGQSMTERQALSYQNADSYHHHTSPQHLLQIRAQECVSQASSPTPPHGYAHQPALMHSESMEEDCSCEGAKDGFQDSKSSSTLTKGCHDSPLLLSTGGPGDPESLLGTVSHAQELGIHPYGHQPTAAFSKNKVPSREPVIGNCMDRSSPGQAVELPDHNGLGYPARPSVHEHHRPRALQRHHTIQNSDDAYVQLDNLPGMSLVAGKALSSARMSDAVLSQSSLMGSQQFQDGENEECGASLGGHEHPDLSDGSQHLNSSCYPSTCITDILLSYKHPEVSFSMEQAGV
As for the experimental part:
as §1, §2, §3, §4, §5

Structures are written as SMILES.

The term IC50 denotes the concentration that inhibits the measured activity by half.

T2 sequence (P57059 whole entry): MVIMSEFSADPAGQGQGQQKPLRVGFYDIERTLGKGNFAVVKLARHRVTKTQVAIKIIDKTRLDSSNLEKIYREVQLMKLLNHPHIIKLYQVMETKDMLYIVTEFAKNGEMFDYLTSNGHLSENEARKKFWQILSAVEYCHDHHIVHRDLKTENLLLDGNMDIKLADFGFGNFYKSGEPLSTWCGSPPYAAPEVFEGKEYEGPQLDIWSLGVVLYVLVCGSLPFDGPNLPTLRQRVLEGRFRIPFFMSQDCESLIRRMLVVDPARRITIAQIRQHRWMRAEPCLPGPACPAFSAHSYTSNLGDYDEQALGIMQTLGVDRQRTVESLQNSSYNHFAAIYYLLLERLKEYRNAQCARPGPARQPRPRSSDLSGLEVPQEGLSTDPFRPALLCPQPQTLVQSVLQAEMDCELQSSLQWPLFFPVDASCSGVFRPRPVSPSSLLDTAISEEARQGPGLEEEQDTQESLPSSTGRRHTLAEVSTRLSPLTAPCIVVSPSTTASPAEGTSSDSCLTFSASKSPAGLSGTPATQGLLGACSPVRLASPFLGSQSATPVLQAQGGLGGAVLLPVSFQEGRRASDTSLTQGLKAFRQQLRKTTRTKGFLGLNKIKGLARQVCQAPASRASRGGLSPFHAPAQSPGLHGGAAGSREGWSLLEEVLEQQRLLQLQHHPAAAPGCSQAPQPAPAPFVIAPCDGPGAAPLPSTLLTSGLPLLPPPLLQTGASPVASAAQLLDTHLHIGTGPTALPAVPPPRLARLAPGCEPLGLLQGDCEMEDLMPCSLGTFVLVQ
T1 sequence (Q9H0K1 whole entry): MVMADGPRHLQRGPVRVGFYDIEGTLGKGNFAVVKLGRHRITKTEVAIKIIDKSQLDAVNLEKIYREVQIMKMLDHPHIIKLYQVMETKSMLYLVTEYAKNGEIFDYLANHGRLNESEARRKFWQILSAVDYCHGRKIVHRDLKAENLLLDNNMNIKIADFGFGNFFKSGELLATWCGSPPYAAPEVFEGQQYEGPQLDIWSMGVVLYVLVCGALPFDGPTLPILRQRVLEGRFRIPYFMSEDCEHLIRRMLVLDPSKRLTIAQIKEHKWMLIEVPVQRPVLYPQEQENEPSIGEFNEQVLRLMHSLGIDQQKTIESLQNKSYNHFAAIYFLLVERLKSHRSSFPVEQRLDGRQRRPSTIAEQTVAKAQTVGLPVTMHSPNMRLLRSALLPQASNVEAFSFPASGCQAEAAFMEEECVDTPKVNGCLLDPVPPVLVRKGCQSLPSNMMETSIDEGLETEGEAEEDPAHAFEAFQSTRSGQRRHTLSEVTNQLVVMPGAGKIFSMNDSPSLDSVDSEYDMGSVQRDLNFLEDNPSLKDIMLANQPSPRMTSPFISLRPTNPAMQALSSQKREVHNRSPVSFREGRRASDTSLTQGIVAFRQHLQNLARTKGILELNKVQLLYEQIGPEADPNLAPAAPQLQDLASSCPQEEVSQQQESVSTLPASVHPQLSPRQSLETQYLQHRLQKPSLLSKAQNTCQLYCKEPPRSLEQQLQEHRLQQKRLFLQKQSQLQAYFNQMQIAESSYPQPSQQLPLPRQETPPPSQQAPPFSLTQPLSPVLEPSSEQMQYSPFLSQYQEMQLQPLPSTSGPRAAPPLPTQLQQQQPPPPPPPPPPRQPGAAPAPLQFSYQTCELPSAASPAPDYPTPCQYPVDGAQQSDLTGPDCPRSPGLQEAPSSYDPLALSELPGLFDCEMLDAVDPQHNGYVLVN

As to `COc1cc(-n2cnc3cc(-c4cnn(C)c4)ccc32)cc(OC)c1C(=O)NC1CCC[C@H]1O` (stereo in doubt) [compound 140, N-[(1R,2R)-2-hydroxycyclopentyl]-2,6-dimethoxy-4-[5-(1-methylpyrazol-4-yl)benzimidazol-1-yl]benzamide], the IC50 at SIK2, at SIK1 and against SIK3 was 10 to 100 nM throughout.

With `COc1cc(-n2cnc3cc(-c4cnn(C)c4)ccc32)cc(OC)c1C(=O)NC1CCC[C@@H]1O` (stereo in doubt) [compound 141, N-[(1R,2S)-2-hydroxycyclopentyl]-2,6-dimethoxy-4-[5-(1-methylpyrazol-4-yl)benzimidazol-1-yl]benzamide], the IC50 on SIK2, on SIK1 and at SIK3 was 10 to 100 nM throughout.

With `COc1cc(-n2cnc3cc(-c4cnn(C)c4)ccc32)cc(OC)c1C(=O)Nc1cnc(C)cn1` [Cpd 70, 2,6-dimcthoxy-N-(5-methylpyrazin-2-yl)-4-[5-(1-methylpyrazol-4-yl)benzimidazol-1-yl]benzamide], the IC50 on SIK2 lay within 10 to 100 nM; at SIK1 it was 100 to 500 nM; on SIK3, 100 to 500 nM.

As for `COc1cc(-n2cnc3cc(-c4cnn(C)c4)ccc32)cc(OC(C)C)c1C(=O)NC1CC1` [Cpd 119, N-cyclopropyl-2-isopropoxy-6-methoxy-4-[5-(1-methylpyrazol-4-yl)benzimidazol-1-yl]benzamide], the IC50 at SIK2, on SIK1 and on SIK3 was 100 to 500 nM in each case.

In the case of `COc1cc(-n2cnc3cc(-n4ccc(C)n4)ccc32)cc(OC)c1C(=O)NCC(F)(F)F` [Cpd 154, 2,6-dimethoxy-4-[5-(3-methylpyrazol-1-yl)benzimidazol-1-yl]-N-(2,2,2-trifluoroethyl)benzamide], the IC50 on SIK2, at SIK1 and at SIK3 was 100 to 500 nM in each case.

For the compound `COc1cc(-n2cnc3cc(-n4nc(C)cc4C)ccc32)cc(OC)c1C(=O)NCC(F)(F)F` [Cpd 165, 4-[5-(3,5-dimethylpyrazol-1-yl)benzimidazol-1-yl]-2,6-dimethoxy-N-(2,2,2-trifluoroethyl)benzamide], the IC50 on SIK2, at SIK1 and against SIK3 was over 500 nM in each case.

For the compound `COc1cc(-n2cnc3cc(-n4cnc(C)n4)ccc32)cc(OC)c1C(=O)NCC(F)(F)F` [Cpd 166, 2,6-dimethoxy-4-[5-(3-methyl-1,2,4-triazol-1-yl)benzimidazol-1-yl]-N-(2,2,2-trifluoroethyl)benzamide], the IC50 was over 500 nM on SIK2, over 500 nM at SIK1 and 100 to 500 nM at SIK3.

On to `COc1cc(-n2cnc3cc(-c4nnc(C)o4)ccc32)cc(OC)c1C(=O)NCC(F)(F)F` [Cpd 167, 2,6-dimethoxy-4-[5-(5-methyl-1,3,4-oxadiazol-2-yl)benzimidazol-1-yl]-N-(2,2,2-trifluoroethyl)benzamide], for which the IC50 is over 500 nM at SIK2, over 500 nM at SIK1 and 100 to 500 nM against SIK3.

For the compound `COc1cc(-n2cnc3cc(-c4nnc(C)n4C)ccc32)cc(OC)c1C(=O)NCC(F)(F)F` [Cpd 168, 4-[5-(4,5-dimethyl-1,2,4-triazol-3-yl)benzimidazol-1-yl]-2,6-dimethoxy-N-(2,2,2-trifluoroethyl)benzamide], the IC50 at SIK2, at SIK1 and against SIK3 was over 500 nM in each case.

Take `COc1cc(-n2cnc3cc(-c4nc(C)no4)ccc32)cc(OC)c1C(=O)NCC(F)(F)F` [Cpd 169, 2,6-dimethoxy-4-[5-(3-methyl-1,2,4-oxadiazol-5-yl)benzimidazol-1-yl]-N-(2,2,2-trifluoroethyl)benzamide]: the IC50 at SIK2, on SIK1 and against SIK3 was over 500 nM each time.

Consider `CCn1cc(-c2ccc3c(c2)ncn3-c2cc(OC)c(C(=O)NCCO)c(OC)c2)cn1` [compound 5, 4-[5-(1-ethylpyrazol-4-yl)benzimidazol-1-yl]-N-(2-hydroxyethyl)-2,6-dimethoxy-benzamide], for which the figures for the half-inhibitory concentration (IC50) at SIK2, on SIK1 and at SIK3 were 10 to 100 nM, 100 to 500 nM and 10 to 100 nM, respectively.

`CCNC(=O)c1c(OC)cc(-n2cnc3cc(-c4cn(C)nc4C)ccc32)cc1OC` [compound 8, 4-[5-(1,3-dimethylpyrazol-4-yl)benzimidazol-1-yl]-N-ethyl-2,6-dimethoxy-benzamide]: the values for the IC50 at SIK2, at SIK1 and on SIK3 were 10 to 100 nM, 100 to 500 nM and 100 to 500 nM, respectively.

Regarding `CCNC(=O)c1c(O)cc(-n2cnc3cc(-c4cnn(CC)c4)ccc32)cc1OC` [compound 23, N-ethyl-4-[5-(1-ethylpyrazol-4-yl)benzimidazol-1-yl]-2-hydroxy-6-methoxy-benzamide], the IC50 on SIK2, at SIK1 and against SIK3 was 10 to 100 nM each time.

For the compound `CCn1cc(-c2ccc3c(c2)ncn3-c2cc(OC)c(C(=O)N(C)CCOC)c(OC)c2)cn1` [compound 27, 4-[5-(1-ethylpyrazol-4-yl)benzimidazol-1-yl]-2,6-dimethoxy-N-(2-methoxyethyl)-N-methyl-benzamide], the IC50 at SIK2, at SIK1 and on SIK3 was over 500 nM each time.

Take `CCn1cc(-c2ccc3c(c2)ncn3-c2cc(OC)c(C(=O)N(C)CC(C)C)c(OC)c2)cn1` [compound 28, 4-[5-(1-ethylpyrazol-4-yl)benzimidazol-1-yl]-N-isobutyl-2,6-dimethoxy-N-methyl-benzamide]: the IC50 on SIK2, at SIK1 and against SIK3 was over 500 nM in each case.

Turning to `CCn1cc(-c2ccc3c(c2)ncn3-c2cc(OC)c(C(=O)N(C)CC#N)c(OC)c2)cn1` [compound 31, N-(cyanomethyl)-4-[5-(1-ethylpyrazol-4-yl)benzimidazol-1-yl]-2,6-dimethoxy-N-methyl-benzamide], the IC50 on SIK2 fell in the range of 100 to 500 nM; on SIK1, 100 to 500 nM; against SIK3, 10 to 100 nM.

With `COc1cncc(-c2ccc3c(c2)ncn3-c2cc(OC)c(C(=O)NCC(F)(F)F)c(OC)c2)c1` [compound 35, 2,6-dimethoxy-4-[5-(5-methoxy-3-pyridyl)benzimidazol-1-yl]-N-(2,2,2-trifluoroethyl)benzamide], the IC50 at SIK2 is 100 to 500 nM; on SIK1, 100 to 500 nM; against SIK3, 10 to 100 nM.

As to `COc1cc(-n2cnc3cc(-c4ccc(C#N)nc4)ccc32)cc(OC)c1C(=O)NCC(F)(F)F` [compound 36, 4-[5-(6-cyano-3-pyridyl)benzimidazol-1-yl]-2,6-dimethoxy-N-(2,2,2-trifluoroethyl)benzamide], the results for the IC50 at SIK2, at SIK1 and against SIK3 were 10 to 100 nM, 100 to 500 nM and 10 to 100 nM, respectively.

Take `COc1cc(-n2cnc3cc(-c4ccc(N(C)C)nc4)ccc32)cc(OC)c1C(=O)NCC(F)(F)F` [compound 37, 4-[5-[6-(dimethylamino)-3-pyridyl]benzimidazol-1-yl]-2,6-dimethoxy-N-(2,2,2-trifluoroethyl)benzamide]: the IC50 on SIK2, on SIK1 and against SIK3 was 100 to 500 nM in each case.

As for `COc1cc(-n2cnc3cc(-c4ccc(N)nc4)ccc32)cc(OC)c1C(=O)NCC(F)(F)F` [compound 38, 4-[5-(6-amino-3-pyridyl)benzimidazol-1-yl]-2,6-dimethoxy-N-(2,2,2-trifluoroethyl)benzamide], the IC50 at SIK2 was in the range of 10 to 100 nM; at SIK1 it was 100 to 500 nM; against SIK3, 10 to 100 nM.

Consider `COc1cc(-n2cnc3cc(-c4cccnc4)ccc32)cc(OC)c1C(=O)NCC(F)(F)F` [compound 39, 2,6-dimethoxy-4-[5-(3-pyridyl)benzimidazol-1-yl]-N-(2,2,2-trifluoroethyl)benzamide], for which the IC50 lay in the range of 10 to 100 nM on SIK2, 100 to 500 nM at SIK1 and 10 to 100 nM against SIK3.

For the compound `CCn1cc(-c2ccc3c(c2)ncn3-c2cc(OC)c(C(=O)NC3CCCC3)c(OC)c2)cn1` [compound 45, N-cyclopentyl-4-[5-(1-ethylpyrazol-4-yl)benzimidazol-1-yl]-2,6-dimethoxy-benzamide], the IC50 at SIK2, on SIK1 and on SIK3 was 10 to 100 nM in each case.

For the compound `COc1cc(-n2cnc3cc(-c4cn[nH]c4)ccc32)cc(OC)c1C(=O)NCC(F)(F)F` [compound 47, 2,6-dimethoxy-4-[5-(1H-pyrazol-4-yl)benzimidazol-1-yl]-N-(2,2,2-trifluoroethyl)benzamide], the IC50 on SIK2 was in the range of 10 to 100 nM; on SIK1 it was 10 to 100 nM; against SIK3, 0.01 to 10 nM.

Turning to `COc1cc(-n2cnc3cc(-c4cnn(C)c4)ccc32)cc(OC)c1C(=O)NCCC#N` [compound 59, N-(2-cyanoethyl)-2,6-dimethoxy-4-[5-(1-methylpyrazol-4-yl)benzimidazol-1-yl]benzamide], the IC50 at SIK2, at SIK1 and against SIK3 was 10 to 100 nM each time.

As for `COCCCNC(=O)c1c(OC)cc(-n2cnc3cc(-c4cnn(C)c4)ccc32)cc1OC` [compound 60], the figures for the IC50 on SIK2, on SIK1 and against SIK3 were 10 to 100 nM, 10 to 100 nM and 100 to 500 nM, respectively.

Take `COc1cc(-n2cnc3cc(-c4cnn(C)c4)ccc32)cc(OC)c1C(=O)NCc1ccn(C)n1` [compound 61]: the IC50 is 100 to 500 nM on SIK2, over 500 nM on SIK1 and over 500 nM against SIK3.
